# Reference: patent US20230310333A1, “MESOPOROUS SILICA NANOPARTICLE CONTROLLED RELEASE SYSTEM, PREPARATION METHOD THEREFOR AND APPLICATION THEREOF” (East China University of Science and Technology, priority 2020, published 2023)
# How the values were obtained:
# diabetic mice = test: glucose challenge after patch or injection in diabetic mice (Example 41); format: in vivo, C57bl/6 mice; settings: 12.0 IU/kg, glucose 1.5 g/kg i.p. after 2.5 h, compared with normal group
# Description: 1.5 mg of M3-2 was added into 0.5 mL of ultrapure water, ultrasonically dispersed evenly. 0.25 g of hyaluronic acid (HA) was added, and stirred at room temperature until a homogeneous system was obtained to obtain an HA aqueous solution of M3-2, which was used as a pouring material of microneedle (Microneedles, MNs). 1 g of HA was added to 1 mL of ultrapure water and stirred at room temperature until clear and transparent to obtain a blank solution of HA, which was used as the base material of MNs. 50 μL HA aqueous solution of M3-2 was taken and added to the surface of the mold. […]
# C57bl/6 mice (male, 4-6 weeks) were selected and fed adaptively for two weeks at room temperature of 24° C.±1° C., humidity of 55% for 12 h with bright cycle (8:00-20:00) with adequate water and feed. […] Fasting blood glucose was measured on the 3rd, 5th, 7th, 10th, and 21st days, and it was a stable diabetes model if it was greater than 16.65 mmol/L.
# 2 groups of diabetic mice and 1 group of normal mice (4 mice in each group) were taken. […] After 2.5 h of injection or patch, glucose (1.5 g/kg) was intraperitoneally injected into mice in the diabetes group and the normal group, and the blood sugar was detected.
# diabetic rats [1] = test: glucose challenge 2.5 h after injection in diabetic rats (Example 38); format: in vivo, wistar rats; settings: 4.1 IU subcutaneous in the neck, glucose 1.5 g/kg i.p. after 2.5 h, compared with normal group
# Description: Male wistar rats of 4-6 weeks were selected and fed for two weeks. streptozotocin (STZ) was administered once in a dose of 180 mg/kg (administered according to the specific body weight of the rat). The STZ was weighed according to the weight of the rat, put in a sterilized bottle, then wrapped with tinfoil. The sodium citrate buffer solution and the STZ bottle were brought into the animal room under ice bath conditions. A sodium citrate buffer solution with a concentration of 1% STZ (1 g/100 ml) was prepared, and injected into the tail vein within 30 minutes to prevent inactivation. After injection of STZ, adequate drinking water and feed were given every day. Fasting blood sugar was measured on the 1st day, 7th day, and 10th day. If it was greater than 16.65 mmol/L, it was a stable diabetes model. 2 groups of diabetic rats and 1 group of normal rats (4 rats in each group) were taken. Diabetic rat groups were subcutaneously injected with (1) 2.0 mg M3-2 (4.1 IU) and (2) insulin (4.1 IU) in the neck respectively. After 2.5 h of injection, g lucose (1.5 g/kg) was intraperitoneally injected into rats in the diabetes group and the normal group, and the blood sugar was detected.
# diabetic rats [2] = test: blood sugar of diabetic rats after subcutaneous injection (Example 37); format: in vivo, wistar rats; settings: same dose (4.1 IU)
# Description: Male wistar rats of 4-6 weeks were selected and fed for two weeks. streptozotocin (STZ) was administered once in a dose of 180 mg/kg (administered according to the specific body weight of the rat). The STZ was weighed according to the weight of the rat, put in a sterilized bottle, then wrapped with tinfoil. The sodium citrate buffer solution and the STZ bottle were brought into the animal room under ice bath conditions. A sodium citrate buffer solution with a concentration of 1% STZ (1 g/100 ml) was prepared, and injected into the tail vein within 30 minutes to prevent inactivation. After injection of STZ, adequate drinking water and feed were given every day. Fasting blood sugar was measured on the 1st day, 7th day, and 10th day. If it was greater than 16.65 mmol/L, it was a stable diabetes model. Diabetic rats were taken and divided into 4 groups (4 rats in each group). The group of diabetic rats were subcutaneously injected (1) 1.5 mg M3-2, (2) 2.0 mg M3-2 (4.1 IU), (3) 1.0 mL PBS buffer solution and (4) insulin (4.1 IU). Blood sugar in rats was monitored for a period of time after injection.
substance,measurement,setting,value
insulin,blood sugar regulation after intraperitoneal glucose,diabetic mice,the blood sugar quickly rises to a higher blood sugar level after glucose injection
same,blood sugar regulation after intraperitoneal glucose,diabetic rats [1],the blood sugar quickly returns to a higher blood sugar level
same,duration of blood glucose at 100-200 mg/dL,diabetic rats [2],4.5 h
